Data on 23 compounds can be found in patent publication US7045515B2, “β-lactam compounds process for reproducing the same and serum cholesterol-lowering agents containing the same” (Kotobuki Pharmaceutical Co., Ltd., priority 2001, dated 2006).

Data set [1] relates to hypercholesterolemic hamster. Kind of data set: Hypocholesterolemic activity in hamsters fed a 0.5%-cholesterol diet. In kind it is in vivo. The settings on record: Mesocricetus auratus, po, negative = hypocholesterolemic action, read-out: Serum cholesterol (%); for change in vivo at 3 mg/kg: 3 mg/kg orally daily; for change in vivo at 20 mg/kg: 20 mg/kg orally daily; for change in vivo at 10 mg/kg: 10 mg/kg orally daily. As to the method: [Hypocholesterolemic Agents Using the Hypercholesterolemic Hamster]
Hamsters were derived into groups with 3 animals per group and fed a 0.5%-cholesterol containing CE-2 diet (CLEA Japan Inc.) for 4 or 7 days. The normal dietary group were fed a standard CE-2 during the experiment. Each compound or vehicle (0.2 mL of corn oil) per 100 g body weight was orally administered daily for 4 or 7 days from the day that high-cholesterol diet was started. At 20 hr after the final administration, blood samples were collected from the abdominal aorta of non-fasted animals under anesthesia with diethylether. Serum cholesterol was measured by enzymatic method using cholesterol E-test wako (Wako Pure Chemical Industries). Activity of the test compounds is expressed as percent reduction of the test compound on the basis of comparison with rised total cholesterol treated only with no-treatment-high-cholesterol diet. The test compounds with the optical rotation value in the compounds 1–58 were evaluated as the chiral compounds.

Setting [2] is: 168 h, dosage day 7, changed percent vs rise in total cholesterol on high-cholesterol diet.
Setting [3] is: 96 h, dosage day 4, changed percent.

Like-named read-outs stand apart in the source and are kept apart here.

On to `O=C1[C@H](CCCc2ccc(F)cc2)[C@@H](c2ccc(C[C@@H]3O[C@H](CO)[C@@H](O)[C@H](O)[C@H]3O)cc2)N1c1ccc(F)cc1` (relative stereo) [Compound 2, (4S*,3R*)-4-(4-{[(2S,5S,3R,4R,6R)-3,4,5-Trihydroxy-6-(hydroxymethyl)perhydro-2H-pyran-2-yl]methyl}phenyl)-1-(4-fluorophenyl)-3-[3-(4-fluorophenyl)propyl]azetidine-2-one], for which the melting point (commonly the temperature, or range, at which the solid turns liquid) is 110 to 112 °C. Besides, the change in vivo at 3 mg/kg in data set [1] (setting [2]) is -120%.

Take `CC(=O)OC[C@H]1O[C@@H](Cc2ccc([C@@H]3[C@@H](CCOc4ccc(F)cc4)C(=O)N3c3ccc(F)cc3)cc2)[C@H](OC(C)=O)[C@@H](OC(C)=O)[C@@H]1OC(C)=O` (relative stereo) [Compound 13, (3S,2R,4R,5R,6R)-2-[(4-{(4S*,3R*)-1-(4-Fluorophenyl)-3-[2-(4-fluorophenoxy)ethyl]-2-oxoazetidine-4-yl}phenyl)methyl]-4,5-diacetyloxy-6-(acetoxymethyl)perhydro-2H-pyran-3-ylacetate]: the melting point is 64 to 66 °C. Moreover, the change in vivo at 20 mg/kg in data set [1] (setting [3]) was -28%.

In the case of `O=C1[C@H](CCOc2ccc(F)cc2)[C@@H](c2ccc(OCC3O[C@H](CO)[C@@H](O)[C@H](O)[C@H]3O)cc2)N1c1ccc(F)cc1` (relative stereo) [Compound 15, (4S*,3R*)-4-(4-{[(4S,5S,2R,3R,6R)-3,4,5-Trihydroxy-6-(hydroxymethyl)perhydro-2H-pyran-2-yl]methoxy}phenyl)-1-(4-fluorophenyl)-3-[2-(4-fluorophenoxy)ethyl]azetidine-2-one], the melting point is 64 to 65 °C. In data set [1] (setting [3]), the change in vivo at 20 mg/kg was -21%.

`O=C1[C@H](CC[C@H](O)c2ccc(C3OC(CO)C(O)C(O)C3O)cc2)C(c2ccc(F)cc2)N1c1ccc(F)cc1` (stereo in doubt) [Compound 49, 3-((3S)-(4-[(2S,5S,3R,4R,6R)-3,4,5-Trihydroxy-6-(hydroxymethyl)perhydro-2H-pyran-2-yl]phenyl}-3-hydroxypropyl)(4S,3R)-1,4-bis(4-fluorophenyl)azetidine-2-one]: the melting point lay in the range of 111 to 113 °C. Further, the change in vivo at 10 mg/kg in data set [1] (setting [3]) was -55%.

With `O=C1[C@H](CC[C@H](O)c2ccc(F)cc2)[C@@H](c2ccc(C[C@@H]3O[C@H](CO)[C@@H](O)[C@H](O)[C@H]3O)cc2)N1c1ccccc1` [Compound 23, (4S,3R)-3-[(3S)-3-(4-Fluorophenyl)-3-hydroxypropyl]-4-(4-{[(2S,5S,3R,4R,6R)-3,4,5-trihydroxy-6-(hydroxymethyl)perhydro-2H-pyran-2-yl]methyl}phenyl)-1-phenylazetidine-2-one], the melting point fell in the range of 104 to 106 °C. Besides, the change in vivo at 3 mg/kg in data set [1] (setting [2]) was -177%.

Regarding `Cc1ccc(N2C(=O)[C@H](CC[C@H](O)c3ccc(F)cc3)[C@H]2c2ccc(C[C@@H]3O[C@H](CO)[C@@H](O)[C@H](O)[C@H]3O)cc2)cc1` [Compound 24, (4S,3R)-3-[(3S)-3-(4-Fluorophenyl)-3-hydroxypropyl]-4-(4-{[(2S,5S,3R,4R,6R)-3,4,5-trihydroxy-6-(hydroxymethyl)perhydro-2H-pyran-2-yl]methyl}phenyl)-1-(4-methylphenyl)azetidine-2-one], the melting point lay in the range of 102 to 104 °C. Further, the change in vivo at 3 mg/kg in data set [1] (setting [2]) was -156%.

As to `Cc1ccc(N2C(=O)[C@H](CCC(=O)c3ccc(F)cc3)[C@H]2c2ccc(C[C@@H]3O[C@H](CO)[C@@H](O)[C@H](O)[C@H]3O)cc2)cc1` [Compound 28, (4S,3R)-4-(4-{[(2S,5S,3R,4R,6R)-3,4,5-Trihydroxy-6-(hydroxymethyl)perhydro-2H-pyran-2-yl]methyl}phenyl)-1-(4-methylphenyl)-3-[3-(4-fluorophenyl)-3-oxopropyl]azetidine-2-one], the melting point lay in the range of 86 to 88 °C. In addition, the change in vivo at 3 mg/kg in data set [1] (setting [2]) is -130%.

`O=C(O)[C@H]1O[C@@H](Cc2ccc([C@@H]3[C@@H](CC[C@H](O)c4ccc(F)cc4)C(=O)N3c3ccc(F)cc3)cc2)[C@H](O)[C@@H](O)[C@@H]1O` [Compound 33]: the melting point was 82 to 84 °C. The change in vivo at 3 mg/kg in data set [1] (setting [3]) is -67%.

Compound `O=C1[C@H](CC[C@H](O)c2ccc(F)cc2)[C@@H](c2ccc(F)cc2)N1c1ccc(C[C@@H]2O[C@H](CO)[C@@H](O)[C@H](O)[C@H]2O)cc1` [Compound 38, (4S,3R)-3-[(3S)-3-(4-Fluorophenyl)-3-hydroxypropyl]-1-(4-{[(2S,5S,3R,4R,6R)-3,4,5-trihydroxy-6-(hydroxymethyl)perhydro-2H-pyran-2-yl]methyl}phenyl)-1-(4-fluorophenyl)azetidine-2-one] had a melting point of 200 to 201 °C. Besides, the change in vivo at 10 mg/kg in data set [1] (setting [3]) is -2%.

`Cc1ccc(N2C(=O)[C@H](CCOc3ccc(F)cc3)[C@H]2c2ccc(C[C@@H]3O[C@H](CO)[C@@H](O)[C@H](O)[C@H]3O)cc2)cc1` [Compound 43, 4-(4-{[(5S,2R,3R,4R,6R)-3,4,5-Trihydroxy-6-(hydroxymethyl)perhydro-2H-pyran-2-yl]methyl}phenyl)(4S,3R)-1-(4-methylphenyl)-3-[3-(4-fluorophenoxy)ethyl]azetidine-2-one] returned a melting point of 96 to 98 °C.

Take `O=C1[C@H](CCCc2ccccc2)[C@@H](c2ccc(C[C@@H]3O[C@H](CO)[C@@H](O)[C@H](O)[C@H]3O)cc2)N1c1ccccc1` [Compound 44, 3-(3-Phenylpropyl)(4S,3R)-4-(4-{[(5S,3R,4R,6R)-3,4,5-trihydroxy-6-(hydroxymethyl)perhydro-2H-pyran-2-yl]methyl}phenyl)-1-phenylazetidine-2-one]: the melting point was in the range of 84 to 86 °C.

`O=C1[C@H](CC[C@H](O)c2ccc(F)cc2)[C@@H](c2ccc(/C=C/[C@@H]3O[C@H](CO)[C@@H](O)[C@H](O)[C@H]3O)cc2)N1c1ccc(F)cc1` [Compound 45, (4S,3R)-3-[(3S)-3-(4-Fluorophenyl)-3-hydroxypropyl]4-(4-{[(2S,5S,3R,4R,6R)-3,4,5-trihydroxy-6-(hydroxymethyl)perhydro-2H-pyran-2-yl]ethene}phenyl)-1-(4-fluorophenyl)azetidine-2-one]: the melting point was 84 to 86 °C. For the same compound, the change in vivo at 3 mg/kg in data set [1] (setting [3]) was -136%.

As to `O=C1[C@H](CC[C@H](O)c2ccc(F)cc2)[C@@H](c2ccc(CC[C@@H]3O[C@H](CO)[C@@H](O)[C@H](O)[C@H]3O)cc2)N1c1ccc(F)cc1` [Compound 46, (4S,3R)-3-[(3S)-3-(4-Fluorophenyl)-3-hydroxypropyl]4-(4-([(2S,5S,3R,4R,6R)-3,4,5-trihydroxy-6-(hydroxymethyl)perhydro-2H-pyran-2-yl]ethyl}phenyl)-1-(4-fluorophenyl)azetidine-2-one], the melting point was in the range of 153 to 155 °C. Besides, in data set [1] (setting [3]), the change in vivo at 3 mg/kg is -147%.

Turning to `O=C1[C@H](CC[C@H](O)c2ccc(F)cc2)[C@@H](c2ccc(/C=C/C[C@@H]3O[C@H](CO)[C@@H](O)[C@H](O)[C@H]3O)cc2)N1c1ccc(F)cc1` [Compound 47], the melting point fell in the range of 72 to 74 °C.

`O=C1[C@H](CC[C@H](O)c2ccc(F)cc2)[C@@H](c2ccc(CCC[C@@H]3O[C@H](CO)[C@@H](O)[C@H](O)[C@H]3O)cc2)N1c1ccc(F)cc1` [Compound 48] yielded a melting point of 81 to 83 °C.

`O=C1[C@H](CC[C@H](O)c2ccc(F)cc2)[C@@H](c2ccc(CCCOC[C@@H]3O[C@H](CO)[C@@H](O)[C@H](O)[C@H]3O)cc2)N1c1ccc(F)cc1` [Compound 50] displayed a melting point of 61 to 63 °C.

The compound `O=C1[C@H](CC[C@H](O)c2ccc(F)cc2)[C@@H](c2ccc(/C=C/COC[C@@H]3O[C@H](CO)[C@@H](O)[C@H](O)[C@H]3O)cc2)N1c1ccc(F)cc1` [Compound 51] came in with a melting point of 65 to 67 °C.

As for `O=C1[C@H](CC[C@H](O)c2ccc(F)cc2)[C@@H](c2ccc(/C=C/CC[C@@H]3O[C@H](CO)[C@@H](O)[C@H](O)[C@H]3O)cc2)N1c1ccc(F)cc1` [Compound 52], the melting point was in the range of 79 to 81 °C.

`O=C1[C@H](CC[C@H](O)c2ccc(F)cc2)[C@@H](c2ccc(CCCC[C@@H]3O[C@H](CO)[C@@H](O)[C@H](O)[C@H]3O)cc2)N1c1ccc(F)cc1` [Compound 53]: the melting point fell in the range of 81 to 83 °C.

`O=C1[C@H](CC[C@H](O)c2ccc(F)cc2)[C@@H](c2ccc(/C=C/CCC[C@@H]3O[C@H](CO)[C@@H](O)[C@H](O)[C@H]3O)cc2)N1c1ccc(F)cc1` [Compound 54] displayed a melting point of 69 to 71 °C.

For the compound `O=C1[C@H](CC[C@H](O)c2ccc(F)cc2)[C@@H](c2ccc(CCCCC[C@@H]3O[C@H](CO)[C@@H](O)[C@H](O)[C@H]3O)cc2)N1c1ccc(F)cc1` [Compound 55], the melting point was in the range of 66 to 68 °C.

In turn, `O=C1[C@H](CC[C@H](O)c2ccc(F)cc2)[C@@H](c2ccc(CC[C@@H]3O[C@H](CO)[C@@H](O)[C@H](O)[C@H]3O)cc2)N1c1ccccc1` [Compound 56] came in with a melting point of 82 to 84 °C. Further, the change in vivo at 0.3 mg/kg in data set [1] (96 h, 0.3 mg/kg orally daily, dosage day 4, changed percent) was -84%.

Compound `O=C(O)[C@H]1O[C@@H](CCc2ccc([C@@H]3[C@@H](CC[C@H](O)c4ccc(F)cc4)C(=O)N3c3ccccc3)cc2)[C@H](O)[C@@H](O)[C@@H]1O` [Compound 58] returned a melting point of 110 to 112 °C.
